Test results as given in PubChem BioAssay AID1117344.
Calls of active or inactive are those of the source. How the calls were made is not given here.

Test system: NCI-H716 cells, GLP-1 secretion
Assay: glucagon-like peptide 1 release potency, dose-response assay, half-maximal inhibitory concentration in NCI-H716 cell line (AID 1117344)

| Compound | IC50 |
| --- | --- |
| OCCN1CCN(CC/C=C2/c3ccccc3Sc3ccc(C(F)(F)F)cc32)CC1 | 32.2 µM (inactive) |
| CCCCCCCCCCCC(=O)[O][Sn]([CH2]CCC)([CH2]CCC)[O]C(=O)CCCCCCCCCCC | > 40 µM (inactive) |
| CC(=O)[O][Hg][c]1ccccc1 | 9.57 µM (inactive) |
| CCCCCCCCCCCCCC[N+](C)(C)C | 18.6 µM (inactive) |
| Cc1ccc([N+](=O)[O-])[c]2c1[O][Hg]2 | 9.87 µM (inactive) |
